What was measured:
Format in all cases: in vivo
[1] = test system: ragweed (common ragweed, Ambrosia artemisiifolia); experiment: Test C preemergence, ragweed; conditions: 0 is no effect, 100 is complete control
Outline: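 Ratings run from 0, meaning no effect, up to 100, meaning complete control, judged by eye against untreated plants. Treatment was a directed soil spray before emergence or a postemergence spray on 2–10 cm seedlings, with evaluation 10 or 12 days later.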

[2] = test system: ryegrass, Italian (Italian ryegrass, Lolium multiflorum); experiment: Test C preemergence, Italian ryegrass; conditions: 0 is no effect, 100 is complete control
Outline: (§1)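 Herbicidal effect was estimated visually on a 0–100 scale 10 or 12 days after spraying. Formulation: non-phytotoxic solvent mixture with surfactant. Timing: directed soil spray after sowing, or postemergence on seedlings bearing one or two leaves.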

[3] = test system: ryegrass, Italian (Italian ryegrass, Lolium multiflorum); experiment: Test C postemergence, Italian ryegrass; conditions: for Ryegrass, Italian plant response rating: visual injury, 0 to 100 scale (0 no effect, 100 complete control)
Outline: as §1

[4] = test system: wheat (Triticum aestivum); experiment: Test C postemergence, wheat; conditions: for Wheat plant response rating: visual injury, 0 to 100 scale (0 no effect, 100 complete control)
Outline: as §1

[5] = test system: galium (catchweed bedstraw, Galium aparine); experiment: Test C postemergence, galium; conditions: for Galium plant response rating: visual injury, 0 to 100 scale (0 no effect, 100 complete control); for Plant response rating (0 to 100 scale), Galium: 0 is no effect, 100 is complete control
[6] = test system: horseweed (Erigeron canadensis); experiment: Test C postemergence, horseweed; conditions: for Horseweed plant response rating: visual injury, 0 to 100 scale (0 no effect, 100 complete control); for Plant response rating (0 to 100 scale), Horseweed: 0 is no effect, 100 is complete control
Outline: as §1

[7] = test system: barnyardgrass (Echinochloa crusgalli); experiment: Test D flooded paddy test, barnyardgrass; design: key: 0 = no effect, 100 = complete control; conditions: 250 g ai/ha, Flood; applied to paddy water at 2-leaf stage; visual rating after 13 days; scale 0 (no effect) to 100 (complete control)
Outline: (§2)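 Plants were grown to the 2-leaf stage, then pots were flooded to 3 cm above soil and compounds applied directly into the paddy water, with that depth held throughout. After 13 days in a greenhouse, injury was visually rated against untreated controls on a 0–100 scale (0 no effect, 100 complete control).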

[8] = test system: sedge, umbrella (small-flower umbrella sedge, Cyperus difformis); experiment: Test D flooded paddy test, umbrella sedge; design: key: 0 = no effect, 100 = complete control; conditions: 250 g ai/ha, Flood; applied to paddy water at 2-leaf stage; visual rating after 13 days; scale 0 (no effect) to 100 (complete control)
Outline: as §2

[9] = 125 g ai/ha Postemergence, 0 is no effect, 100 is complete control

Row | Structure (SMILES) | Plant response rating (0 to 100 scale), Ragweed ([1]; 31 g ai/ha Preemergence) | Plant response rating (0 to 100 scale), Ragweed ([1]; 125 g ai/ha Preemergence) | Plant response rating (0 to 100 scale), Ryegrass, Italian ([2]; 31 g ai/ha Preemergence) | Plant response rating (0 to 100 scale), Ryegrass, Italian ([2]; 125 g ai/ha Preemergence) | Ryegrass, Italian plant response rating ([3]; 31 g ai/ha Postemergence) | Ryegrass, Italian plant response rating ([3]; 125 g ai/ha Postemergence) | Wheat plant response rating ([4]; 31 g ai/ha Postemergence) | Wheat plant response rating ([4]; 125 g ai/ha Postemergence) | Galium plant response rating ([5]; 31 g ai/ha Postemergence) | Plant response rating (0 to 100 scale), Galium ([5]; 125 g ai/ha Postemergence) | Horseweed plant response rating ([6]; 31 g ai/ha Postemergence) | Plant response rating (0 to 100 scale), Horseweed ([6]; 125 g ai/ha Postemergence) | Plant response rating, Barnyardgrass [7] | Plant response rating, Sedge, Umbrella [8] | Plant response rating (0 to 100 scale), Ryegrass, Italian [3, 9] | Plant response rating (0 to 100 scale), Wheat [4, 9] | Galium plant response rating ([5]; 125 g ai/ha Postemergence) | Horseweed plant response rating ([6]; 125 g ai/ha Postemergence)
1 | Cc1c(N2CCCC(OC3CC3)C2=O)cc(N(COC(=O)C(C)(C)C)S(=O)(=O)C(F)(F)F)c(C)c1F (centres unmarked) [Compound 37] | 0 | 90 | 30 | 70 | 0 | 60 | 10 | 60 | 60 | 90 | 80 | 80 | 90 | 95 |  |  |  | 
2 | Cc1cc(C)c(N(C(=O)OCC(C)C)S(=O)(=O)C(F)(F)F)cc1N1CCC(OC2CC2)C1=O (centres unmarked) [Compound 21] | 40 | 80 | 70 | 100 | 50 |  | 10 |  | 100 | 100 | 60 | 90 | 95 | 98 | 100 | 50 |  | 
3 | Cc1c(NS(=O)(=O)C(F)(F)F)cc(N2CCC(OC3CCC3)C2=O)c(C)c1C (centres unmarked) [Compound 45] | 80 | 100 | 50 | 90 | 0 | 50 | 20 | 60 | 100 |  | 30 |  | 95 | 90 |  |  | 100 | 90
4 | Cc1cc(C)c(N2CCC(OCC3CCCO3)C2=O)cc1NS(=O)(=O)C(F)(F)F (centres unmarked) [Compound 42] | 10 | 60 | 20 | 90 | 20 | 70 | 0 | 80 | 50 |  | 20 |  | 0 | 90 |  |  | 90 | 80
5 | C=C(C)COC1CCN(c2cc(NS(=O)(=O)C(F)(F)F)c(C)cc2C)C1=O (centres unmarked) [Compound 59] | 50 | 70 | 30 | 100 | 10 | 70 | 50 | 80 | 100 |  | 20 |  | 60 | 95 |  |  | 100 | 80
6 | Cc1cc(C)c(N2CCC(OC3COC3)C2=O)cc1NS(=O)(=O)C(F)(F)F (centres unmarked) [Compound 34] | 50 | 100 | 40 | 80 | 40 | 90 | 70 | 80 | 100 | 100 | 90 | 100 | 35 | 80 |  |  |  | 
7 | Cc1c(NS(=O)(=O)C(F)(F)F)cc(N2CCC(OCC3CC3)C2=O)c(C)c1F (centres unmarked) [Compound 63] | 90 | 100 | 50 | 100 | 0 | 10 | 10 | 40 | 100 |  | 90 |  | 45 | 95 |  |  | 100 | 90
8 | Cc1cc(C)c(N(COC(=O)C(C)(C)C)S(=O)(=O)C(F)(F)F)cc1N1CCC(OCC2CCC2)C1=O (centres unmarked) [Compound 56] | 0 | 30 | 30 | 80 | 0 | 60 | 0 | 70 |  |  | 20 |  | 35 | 95 |  |  |  | 80

Reference: US20240158348A1, “HERBICIDAL CYCLIC AMIDES N-SUBSTITUTED WITH A HALOALKYLSULFONYLANILIDE GROUP” (FMC Corporation, priority 2021, published 2024)
